Laboratory results reported in US20230340011A1 (Asteroid Therapeutics, priority 2022, published 2023).
Where a name gives a salt, the structure may show the parent alone.

Assays:
[1] = biological target: SREBP-2 (Homo sapiens (Human), UniProt Q12772); test: In vitro assay SREBP-2: PathHunter U2OS SREBP-2 Nuclear Translocation Cell Line, U18666A-stimulated; assay type: cell-based; conditions: PathHunter U2OS SREBP-2 nuclear translocation cells, U18666A 10 μM, overnight (16 hours)
[2] = biological target: LXRβ (Homo sapiens (Human), UniProt P55055); test: In vitro assay LXRβ: PathHunter NHR CHO cells, LXRβ / Steroid Receptor Co-activator Peptide enzyme fragment complementation; assay type: cell-based; conditions: PathHunter NHR CHO cells, full-length human LXRβ and SRCP, chemiluminescent signal; read-out: LXRβ PPI
LXRβ, sequence (P55055 whole entry, the tested form may be a part): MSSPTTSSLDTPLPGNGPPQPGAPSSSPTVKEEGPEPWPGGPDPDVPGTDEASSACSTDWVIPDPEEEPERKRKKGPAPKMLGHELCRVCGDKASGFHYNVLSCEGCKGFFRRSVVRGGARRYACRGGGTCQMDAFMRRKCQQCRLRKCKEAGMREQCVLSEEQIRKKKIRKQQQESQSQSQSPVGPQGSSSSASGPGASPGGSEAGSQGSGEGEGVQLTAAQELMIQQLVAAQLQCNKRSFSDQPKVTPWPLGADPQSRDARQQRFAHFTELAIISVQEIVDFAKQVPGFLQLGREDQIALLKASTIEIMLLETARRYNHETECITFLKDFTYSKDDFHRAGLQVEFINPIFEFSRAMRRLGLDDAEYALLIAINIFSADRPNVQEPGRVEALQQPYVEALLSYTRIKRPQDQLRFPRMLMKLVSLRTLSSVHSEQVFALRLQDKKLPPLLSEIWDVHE
How it was run: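 Enzyme fragment complementation read-out: CHO cells stably expressing ProLink-tagged full-length human LXRβ plus nuclear enzyme acceptor–SRCP fusion, seeded and held overnight at 37° C. Medium with charcoal-dextran filtered serum; final vehicle 1%. Chemiluminescence measured after signal generation.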

In the case of C[C@H](CCC(=O)N1CCC(C)(CO)C1)[C@H]1CC[C@H]2[C@@H]3CC=C4C[C@@H](O)CC[C@]4(C)[C@H]3CC[C@]12C (stereo in doubt) [Example 374, (4R)-4-[(1R,3aS,3bS,7S,9aR,9bS,11aR)-7-hydroxy-9a,11a-dimethyl-1H,2H,3H,3aH,3bH,4H,6H,7H,8H,9H,9aH,9bH,10H,11H,11aH-cyclopenta[a]phenanthren-1-yl]-1-[(3R)-3-(hydroxymethyl)-3-methylpyrrolidin-1-yl]pentan-1-one], the IC50 [1] is reported as under 250 nM and the EC50 [2] is reported as 250 to 1000 nM.

Work on C[C@H](COc1ncccc1CO)[C@H]1CC[C@H]2[C@@H]3CC=C4C[C@@H](O)CC[C@]4(C)[C@H]3CC[C@]12C [Example 257, (3S,8S,9S,10R,13S,14S,17R)-17-((S)-1-((3-(hydroxymethyl)pyridin-2-yl)oxy)propan-2-yl)-10,13-dimethyl-2,3,4,7,8,9,10,11,12,13,14,15,16,17-tetradecahydro-1H-cyclopenta[a]phenanthren-3-ol] yielded an IC50 [1] of under 250 nM and an EC50 [2] of over 10000 nM.

With C[C@H](CCC(=O)N1CCN(C(=O)c2nnnn2C)CC1)[C@H]1CC[C@H]2[C@@H]3CC=C4C[C@@H](O)CC[C@]4(C)[C@H]3CC[C@]12C [Example 363, (R)-4-((3S,8S,9S,10R,13R,14S,17R)-3-hydroxy-10,13-dimethyl-2,3,4,7,8,9,10,11,12,13,14,15,16,17-tetradecahydro-1H-cyclopenta[a]phenanthren-17-yl)-1-(4-(1-methyl-1H-tetrazole-5-carbonyl)piperazin-1-yl)pentan-1-one] the IC50 [1] was under 250 nM and the EC50 [2] was over 10000 nM.

C[C@H]1CCCN(C(=O)CC[C@@H](C)[C@H]2CC[C@H]3[C@@H]4CC=C5C[C@@H](O)CC[C@]5(C)[C@H]4CC[C@]23C)C1 [Example 110, (R)-4-((3S,8S,9S,10R,13R,14S,17R)-3-hydroxy-10,13-dimethyl-2,3,4,7,8,9,10,11,12,13,14,15,16,17-tetradecahydro-1H-cyclopenta[a]phenanthren-17-yl)-1-((S)-3-methylpiperidin-1-yl) pentan-1-one] was tested, and the IC50 [1] was under 250 nM and the EC50 [2] was 1000 to 10000 nM.

In the case of C[C@H](CC(=O)N1CCN(C(=O)c2cnn(C)c2)CC1)[C@H]1CC[C@H]2[C@@H]3CC=C4C[C@@H](O)CC[C@]4(C)[C@H]3CC[C@]12C [Example 594, (R)-3-((3S,8S,9S,10R,13R,14S,17R)-3-hydroxy-10,13-dimethyl-2,3,4,7,8,9,10,11,12,13,14,15,16,17-tetradecahydro-1H-cyclopenta[a]phenanthren-17-yl)-1-(4-(1-methyl-1H-pyrazole-4-carbonyl)piperazin-1-yl)butan-1-one], the IC50 [1] is reported as 1000 to 10000 nM and the EC50 [2] is reported as over 10000 nM.

Compound C[C@H](CCC(=O)N1CC[C@@H](Oc2ccncc2)[C@@H](C)C1)[C@H]1CC[C@H]2[C@@H]3CC=C4C[C@@H](O)CC[C@]4(C)[C@H]3CC[C@]12C [Example 572, (R)-4-((3S,8S,9S,10R,13R,14S,17R)-3-hydroxy-10,13-dimethyl-2,3,4,7,8,9,10,11,12,13,14,15,16,17-tetradecahydro-1H-cyclopenta[a]phenanthren-17-yl)-1-((3S,4R)-3-methyl-4-(pyridin-4-yloxy)piperidin-1-yl)pentan-1-one] has an IC50 [1] of under 250 nM and an EC50 [2] of over 10000 nM.

With CON(C[C@H](C)O)C(=O)CC[C@@H](C)[C@H]1CC[C@H]2[C@@H]3CC=C4C[C@@H](O)CC[C@]4(C)[C@H]3CC[C@]12C [Example 69, (R)-4-((3S,8S,9S,10R,13R,14S,17R)-3-hydroxy-10,13-dimethyl-2,3,4,7,8,9,10,11,12,13,14,15,16,17-tetradecahydro-1H-cyclopenta[a]phenanthren-17-yl)-N—((S)-2-hydroxypropyl)-N-methoxypentanamide] the IC50 [1] was under 250 nM and the EC50 [2] was 250 to 1000 nM.

C[C@H](CCC(=O)N1CCN(c2ncccc2OC2CC2)CC1)[C@H]1CC[C@H]2[C@@H]3CC=C4C[C@@H](O)CC[C@]4(C)[C@H]3CC[C@]12C [Example 621, (R)-1-(4-(3-cyclopropoxypyridin-2-yl)piperazin-1-yl)-4-((3S,8S,9S,10R,13R,14S,17R)-3-hydroxy-10,13-dimethyl-2,3,4,7,8,9,10,11,12,13,14,15,16,17-tetradecahydro-1H-cyclopenta[a]phenanthren-17-yl)pentan-1-one] gave an IC50 [1] of under 250 nM and an EC50 [2] of over 10000 nM.

In the case of CC(=N)N1CCN(C(=O)CC[C@@H](C)[C@H]2CC[C@H]3[C@@H]4CC=C5C[C@@H](O)CC[C@]5(C)[C@H]4CC[C@]23C)CC1 [Example 245, (R)-4-((3S,8S,9S,10R,13R,14S,17R)-3-hydroxy-10,13-dimethyl-2,3,4,7,8,9,10,11,12,13,14,15,16,17-tetradecahydro-1H-cyclopenta[a]phenanthren-17-yl)-1-(4-(1-iminoethyl)piperazin-1-yl)pentan-1-one], the IC50 [1] is reported as 250 to 1000 nM and the EC50 [2] is reported as over 10000 nM.

C[C@H](COc1ccccn1)[C@H]1CC[C@H]2[C@@H]3CC=C4C[C@@H](O)CC[C@]4(C)[C@H]3CC[C@]12C [Example 179, (3S,8S,9S,10R,13S,14S,17R)-10,13-dimethyl-17-((S)-1-(pyridin-2-yloxy)propan-2-yl)-2,3,4,7,8,9,10,11,12,13,14,15,16,17-tetradecahydro-1H-cyclopenta[a]phenanthren-3-ol] was tested, and the IC50 [1] was under 250 nM and the EC50 [2] was over 10000 nM.

With C[C@H](CCc1ccccn1)[C@H]1CC[C@H]2[C@@H]3CC=C4C[C@@H](O)CC[C@]4(C)[C@H]3CC[C@]12C [Example 124, (3S,8S,9S,10R,13R,14S,17R)-10,13-dimethyl-17-((R)-4-(pyridin-2-yl)butan-2-yl)-2,3,4,7,8,9,10,11,12,13,14,15,16,17-tetradecahydro-1H-cyclopenta[a]phenanthren-3-ol] the IC50 [1] was under 250 nM and the EC50 [2] was 250 to 1000 nM.

With C[C@H](CCC(=O)N1CCN(c2cc(N)ncn2)CC1)[C@H]1CC[C@H]2[C@@H]3CC=C4C[C@@H](O)CC[C@]4(C)[C@H]3CC[C@]12C [Example 633, (R)-1-(4-(6-aminopyrimidin-4-yl)piperazin-1-yl)-4-((3S,8S,9S,10R,13R,14S,17R)-3-hydroxy-10,13-dimethyl-2,3,4,7,8,9,10,11,12,13,14,15,16,17-tetradecahydro-1H-cyclopenta[a]phenanthren-17-yl)pentan-1-one] the IC50 [1] was under 250 nM and the EC50 [2] was over 10000 nM.

Work on CC(O)c1cccnc1CC[C@@H](C)[C@H]1CC[C@H]2[C@@H]3CC=C4C[C@@H](O)CC[C@]4(C)[C@H]3CC[C@]12C (stereo partly drawn) [Example 249, (3S,8S,9S,10R,13R,14S,17R)-17-((2R)-4-(3-(1-hydroxyethyl)pyridin-2-yl)butan-2-yl)-10,13-dimethyl-2,3,4,7,8,9,10,11,12,13,14,15,16,17-tetradecahydro-1H-cyclopenta[a]phenanthren-3-ol] yielded an IC50 [1] of under 250 nM and an EC50 [2] of under 250 nM.

In the case of C[C@H](CCC(=O)N(C)OCCN)[C@H]1CC[C@H]2[C@@H]3CC=C4C[C@@H](O)CC[C@]4(C)[C@H]3CC[C@]12C [Example 28, (R)—N-(2-aminoethoxy)-4-((3S,8S,9S,10R,13R,14S,17R)-3-hydroxy-10,13-dimethyl-2,3,4,7,8,9,10,11,12,13,14,15,16,17-tetradecahydro-1H-cyclopenta[a]phenanthren-17-yl)-N-methylpentanamide hydrochloride], the IC50 [1] is reported as 250 to 1000 nM and the EC50 [2] is reported as over 10000 nM.
